Results: ChEMBL document CHEMBL2203108, “Induction of microtubule-damage, mitotic arrest, Bcl-2 phosphorylation, Bak activation, and mitochondria-dependent caspase cascade is involved in human Jurkat T-cell apoptosis by aruncin B from Aruncus dioicus var. kamtschaticus” (Bioorg Med Chem Lett, 2012)
Values after ≈ are worked out from the molar mass of the structure shown. Active and inactive are the calls of the source. No cut-off for these calls is given here.

Columns and labels:
Jurkat [1] = assay: Induction of apoptosis in human Jurkat T cells overexpressing Bcl2 assessed as cellular protrusions after 36 hrs by light microscopy; assay type: functional, cell-based
Jurkat [2] = assay: Induction of apoptosis in human Jurkat T cells overexpressing Bcl2 after 36 hrs by flow cytometry; assay type: functional, cell-based
Jurkat [3] = assay: Induction of cell cycle arrest in human Jurkat T cells overexpressing Bcl2 assessed as G2/M phase cells after 36 hrs by flow cytometry (reference value: 2.4%); assay type: functional
Jurkat [4] = assay: Induction of cell cycle arrest in human Jurkat T cells overexpressing Neo assessed as G2/M phase cells after 36 hrs by flow cytometry (reference value: 4.7%); assay type: functional
Jurkat [5] = assay: Induction of microtubule damage in human Jurkat T cells overexpressing Bcl2 after 36 hrs by immunostaining method; assay type: cell-based
Jurkat [6] = assay: Induction of apoptosis in human Jurkat T cells overexpressing Neo assessed as cellular protrusions after 36 hrs by light microscopy; assay type: functional, cell-based
Jurkat [7] = assay: Induction of microtubule damage in human Jurkat T cells overexpressing Neo after 36 hrs by immunostaining method; assay type: cell-based
Jurkat [8] = assay: Induction of apoptosis in human Jurkat T cells overexpressing Neo after 36 hrs by flow cytometry; assay type: functional, cell-based
[9] = Cytotoxicity against human normal peripheral T cells after 36 hrs by MTT assay; conditions: T-cell
Jurkat [10] = assay: cells; conditions: Homo sapiens, 36 h, read-out: Activity
Description: Induction of apoptosis in human Jurkat T cells overexpressing Bcl2 assessed as cell viability at 7.5 ug/ml after 36 hrs by MTT assay

Jurkat [11] = assay: cells; conditions: Homo sapiens, 36 h, read-out: Activity; remark: listed apart in the source
Description: Cytotoxicity against human Jurkat T cells assessed as cell viability at 15 ug/ml after 36 hrs by MTT assay relative to control

Jurkat [12] = assay: Induction of apoptosis in human Jurkat T cells overexpressing Neo assessed as cell viability at 30 ug/ml after 36 hrs by MTT assay; conditions: read-out: Activity
Jurkat [13] = assay: cells; conditions: Homo sapiens, 36 h, read-out: Activity; remark: listed apart in the source
Description: Induction of apoptosis in human Jurkat T cells overexpressing Bcl2 assessed as cell viability at 15 ug/ml after 36 hrs by MTT assay

Jurkat [14] = assay: cells; conditions: Homo sapiens, 36 h, read-out: Activity; remark: listed apart in the source
Description: Induction of apoptosis in human Jurkat T cells overexpressing Neo assessed as cell viability at 7.5 ug/ml after 36 hrs by MTT assay

[15] = Cytotoxicity against human PHA-stimulated T cells assessed as cell viability at 30 ug/ml after 36 hrs by MTT assay relative to control; conditions: read-out: Activity
Jurkat [16] = assay: Induction of apoptosis in human Jurkat T cells overexpressing Bcl2 assessed as cell viability at 30 ug/ml after 36 hrs by MTT assay; conditions: read-out: Activity
[17] = Cytotoxicity against human PHA-stimulated T cells assessed as cell viability at 60 ug/ml after 36 hrs by MTT assay relative to control; conditions: read-out: Activity
[18] = Cytotoxicity against human normal peripheral T cells assessed as cell viability at 60 ug/ml after 36 hrs by MTT assay relative to control
[19] = Cytotoxicity against human PHA-stimulated T cells after 36 hrs by MTT assay; conditions: T-cell
Jurkat [20] = assay: Cytotoxicity against human Jurkat T cells assessed as cell viability at 60 ug/ml after 36 hrs by MTT assay relative to control; conditions: read-out: Activity
Jurkat [21] = assay: Cytotoxicity against human Jurkat T cells assessed as cell viability at 30 ug/ml after 36 hrs by MTT assay relative to control; conditions: read-out: Activity
Jurkat [22] = assay: cells; conditions: Homo sapiens, 36 h, read-out: Activity; remark: listed apart in the source
Description: Induction of apoptosis in human Jurkat T cells overexpressing Neo assessed as cell viability at 15 ug/ml after 36 hrs by MTT assay

cells = conditions: Homo sapiens, T-cell, 36 h, read-out: Activity
Description: Cytotoxicity against human PHA-stimulated T cells assessed as cell viability at 15 ug/ml after 36 hrs by MTT assay relative to control

Jurkat [23] = assay: Cytotoxicity against human Jurkat T cells after 36 hrs by MTT assay

## COC(=O)Nc1nc2cc(C(=O)c3cccs3)ccc2[nH]1 [NOCODAZOLE]
Jurkat [1]
  Activity: Active
Jurkat [2]
  Activity: inactive
Jurkat [3]
  Activity: 5.6%
Jurkat [4]
  Activity: 40.3%
Jurkat [5]
  Activity: Active
Jurkat [6]
  Activity: Active
Jurkat [7]
  Activity: Active
Jurkat [8]
  Activity: Active

## CCOC(C)(C)/C=C1/C=C(C(=O)O)C(O)CO1 (configuration not stated) [ARUNCIN B]
[9]
  IC50: > 60 µg/mL
Jurkat [10]
  viability at 7.5 µg/mL: 81.5%
Jurkat [11]
  viability at 15 µg/mL: 67.7%
Jurkat [12]
  viability at 30 µg/mL: 44.9%
Jurkat [13]
  viability at 15 µg/mL: 71.5%
Jurkat [14]
  viability at 7.5 µg/mL: 82%
[15]
  viability at 30 µg/mL: 68.5%
Jurkat [16]
  viability at 30 µg/mL: 61.2%
[17]
  viability at 60 µg/mL: 25%
[18]
  viability at 36 h, 60 ug/ml: 63.8%
[19]
  IC50: 49 µg/mL (≈ 202 µM)
Jurkat [20]
  viability at 60 µg/mL: 24.5%
Jurkat [21]
  viability at 30 µg/mL: 36.1%
Jurkat [22]
  viability at 15 µg/mL: 57.4%
cells
  viability at 15 µg/mL: 85.9%
Jurkat [23]
  IC50: 22 µg/mL (≈ 90.8 µM)

## O=c1c(-c2ccc(O)cc2)coc2cc(O)cc(O)c12 [GENISTEIN]
Jurkat [1]
  Activity: inactive
Jurkat [2]
  Activity: inactive
Jurkat [3]
  Activity: 6.7%
Jurkat [4]
  Activity: 35%
Jurkat [5]
  Activity: inactive
Jurkat [6]
  Activity: inactive
Jurkat [7]
  Activity: inactive
Jurkat [8]
  Activity: Active
